This is an account of results in patent US5798352A, “Antithrombotic amidinotetrahydropyridylalanine derivatives” (Pfizer Inc., priority 1995, dated 1998).

The target in one test is thrombin (Bos taurus, UniProt P00735). The test can be described thus: Chromogenic assay, thrombin inhibition (substrate S2238). Format: biochemical. The following applies: in vitro; bovine thrombin; Ki calculated from substrate Km and IC50; pH 8.0, 30° C. How it is done:
(§1) The biological activities of the compounds of the present invention were determined by the following test methods.
(§2) The inhibition of thrombin, trypsin, plasmin or factor Xa is measured in 96 well plate chromogenic assays. The percentage inhibition and IC50 are calculated from triplicate samples of an 8 concentration dose-response curve. From the substrate Km and IC50, the Ki for each inhibitor is calculated. All assays are carried out in a total incubation of 200 μl of 50 mM HEPES and 150 mM NaCl at pH 8.0, and all compound dilutions are preincubated with enzyme at room temperature for 15 minutes prior to addition of substrate. After 30 minutes incubation at 30° C., the O.D. is measured at […] in a 96 well plate reader. Thrombin activity is measured using bovine thrombin and S2238 (H-D-Phe-Pip-Arg-pNA), bovine pancreatic trypsin is assayed with S2222 (Benz-Isoleu-Glu-Gly-Arg-pNA), bovine plasma plasmin is assayed with Chromozym PL (Tosyl-Gly-Pro-Lys-pNA)and bovine fac or Xa is assayed in 50 mM Tris, 150 mM NaCl, pH 7.5 buffer with S2222.

In the next test the target is T1, trypsin (Bos taurus, UniProt P00760).
T1 construct: from tissue; host or cells: bovine pancreas
T1 sequence (P00760 24-246): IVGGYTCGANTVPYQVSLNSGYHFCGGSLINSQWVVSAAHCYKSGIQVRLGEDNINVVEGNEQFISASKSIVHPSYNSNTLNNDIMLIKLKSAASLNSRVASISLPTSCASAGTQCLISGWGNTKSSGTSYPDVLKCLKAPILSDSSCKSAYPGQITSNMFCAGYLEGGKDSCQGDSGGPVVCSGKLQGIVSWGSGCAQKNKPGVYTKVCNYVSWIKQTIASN
The test can be described thus: Chromogenic assay, trypsin inhibition (substrate S2222). Type of test: biochemical. The following applies: in vitro; bovine pancreatic trypsin; Ki calculated from substrate Km and IC50; pH 8.0, 30° C. The procedure: as §1, §2

Structures can show the parent of a compound that is named as a salt.

The Ki is the dissociation constant of the complex between target and ligand, obtained from inhibition or displacement. As for `C[C@@H]1CCN(C(=O)[C@H](CC2=CCCN(C(=N)N)C2)NS(=O)(=O)c2ccc3c(c2)CN(C)CC3)[C@H](C(=O)O)C1` [Example 5, 4(R)-Methyl-1-[N-(2-methyl-1,2,3,4-tetrahydroisoquinoline-7-sulphonyl)-3-(1-amidino-1,2,5,6-tetrahydro-3-pyridyl)-(S)-alanyl]piperidine-2(S-carboxylicacid dihydrochloride], the Ki at thrombin is 1.9 nM; on trypsin it was 2400 nM.

In the case of `C[C@H]1CCN(C(=O)[C@H](CC2=CCCN(C(=N)N)C2)NS(=O)(=O)c2ccc3c(c2)CN(C)CC3)[C@@H](C(=O)O)C1` [Example 6, 4(S)-Methyl-1-[N-(2-methyl-1,2,3,4-tetrahydroisoquinoline-7-sulphonyl)-3-(1-amidino-1,2,5,6-tetrahydro-3-pyridyl)-(S)-alanyl]piperidine-2(R)-carboxylic acid dihydrochloride], the figures for the Ki on thrombin and on trypsin were 9.9 nM and 690 nM, respectively.
